This passage reports GI50 and TGI results from PubChem BioAssay (NCI).

Where “and” joins values, the source holds several entries; their conditions need not be identical. Equal entries are not always repeated.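 The compound was tested at five concentrations on cells cultured in 96-well plates, with a 48-hour exposure period. GI50 = concentration required for 50% inhibition of growth. Definition used: TGI = concentration required for complete inhibition of growth.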

Some test systems named below: HOP-62 NSCLC; NCI-H460 lung; UACC-257 melanoma; PC-3 prostate; NCI-H23 lung; EKVX NSCLC; NCI/ADR-RES ovarian; MOLT-4 leukemia.
Common to all, as to test: growth of human tumour cells (NCI), 48 h

Take `C=C(C)[C@@H]1CC[C@]2(COC3CCCCO3)CC[C@]3(C)[C@H](CC[C@@H]4[C@@]5(C)C=C(C=O)C(=O)C(C)(C)[C@@H]5CC[C@]43C)[C@@H]12` (some centres undefined): the GI50 is 1.75 µM in the assay with HOP-62 NSCLC; 2.02 µM with NCI-H460 lung; 2.06 µM in the assay with UACC-257 melanoma; 1.1 µM in the assay on PC-3 prostate; 1.62 µM in the assay on NCI-H23 lung; 1.62 µM in the assay with EKVX NSCLC. Further, the GI50 with NCI/ADR-RES ovarian is 3.16 µM; in the assay with MOLT-4 leukemia, 1.03 µM. In addition, the TGI was 3.19 µM in the assay with HOP-62 NSCLC; 4.22 µM in the assay on NCI-H460 lung; 4.22 µM with UACC-257 melanoma; 2.71 µM in the assay with PC-3 prostate; 3.63 µM in the assay with NCI-H23 lung; 3.32 µM in the assay on EKVX NSCLC. Moreover, the figures for the TGI in the assay on NCI/ADR-RES ovarian and in the assay on MOLT-4 leukemia were 26.9 µM and 29.9 µM, respectively.

In the case of `COc1ccc(-c2cc(-c3cc(OC)c(OC)c(OC)c3)c(C#N)c(N3CCOCC3)n2)cc1O`, the GI50 with HOP-62 NSCLC is 33.2 µM; in the assay on NCI-H460 lung, 1.07 µM; with UACC-257 melanoma it was 38.4 µM; in the assay on PC-3 prostate, 3.6 µM; in the assay on NCI-H23 lung, 26.7 µM; with EKVX NSCLC, 8.95 µM. Besides, the GI50 in the assay on NCI/ADR-RES ovarian is 1.85 µM; with MOLT-4 leukemia, 4.36 µM. For the same compound, the TGI was over 100 µM in the assay on HOP-62 NSCLC; over 96.1 µM with NCI-H460 lung; over 100 µM in the assay on UACC-257 melanoma; over 100 µM in the assay on PC-3 prostate; over 100 µM with NCI-H23 lung; over 100 µM in the assay on EKVX NSCLC. The TGI with NCI/ADR-RES ovarian and in the assay with MOLT-4 leukemia was over 100 µM in each case.

Turning to `O=C(O)c1ccc2c(c1)nc(Nc1cccc(Cl)c1)c1ccncc12`, the GI50 in the assay on HOP-62 NSCLC is 3.3 µM and 3.38 µM; in the assay with NCI-H460 lung, 3.48 µM and 4.32 µM; in the assay with UACC-257 melanoma, 3.88 µM and 2.68 µM; in the assay with PC-3 prostate, 2.88 µM and 3.57 µM; with NCI-H23 lung it was 2.37 µM and 2.98 µM; in the assay with EKVX NSCLC it was 3.46 µM and 4.04 µM. The GI50 in the assay with NCI/ADR-RES ovarian is 3.17 µM and 3.73 µM; with MOLT-4 leukemia, 3.07 µM and 4.6 µM. Also, the TGI with HOP-62 NSCLC is 25.5 µM and > 10 µM; with NCI-H460 lung, 25.1 µM and > 10 µM; with UACC-257 melanoma, 20.3 µM and > 10 µM; in the assay with PC-3 prostate, 22 µM and > 10 µM; in the assay with NCI-H23 lung it was 8.29 µM and > 10 µM; in the assay with EKVX NSCLC, 23.9 µM and > 10 µM. The TGI in the assay on NCI/ADR-RES ovarian was over 80.1 µM; with MOLT-4 leukemia, 7.4 µM and > 10 µM.

For `CN(C[C@@H]1COCCO1)S(=O)(=O)Nc1ccc2ccc3ncc(-c4cnn(C)c4)cc3c(=O)c2c1`, the GI50 is 10.9 µM with HOP-62 NSCLC; 4.26 µM in the assay with NCI-H460 lung; over 100 µM with UACC-257 melanoma; 5.67 µM in the assay with PC-3 prostate; 1.77 µM in the assay with NCI-H23 lung; 19.1 µM in the assay on EKVX NSCLC. Further, the GI50 with NCI/ADR-RES ovarian was 11.8 µM; in the assay on MOLT-4 leukemia, 4.08 µM. Besides, the TGI in the assay on HOP-62 NSCLC, in the assay with NCI-H460 lung, in the assay on UACC-257 melanoma, in the assay on PC-3 prostate, with NCI-H23 lung and with EKVX NSCLC was over 100 µM each time. Moreover, the TGI with NCI/ADR-RES ovarian is over 100 µM; in the assay with MOLT-4 leukemia, over 91.3 µM.

`NC(=O)/C=C/NC(=O)/C=N\O`: the TGI with HOP-62 NSCLC, with NCI-H460 lung, in the assay on UACC-257 melanoma, in the assay on PC-3 prostate, in the assay with EKVX NSCLC and in the assay on NCI/ADR-RES ovarian was over 100 µM each time. Also, the TGI in the assay on MOLT-4 leukemia was over 100 µM.

Turning to `O=C(O)C1(Cc2cccc(Nc3nccs3)n2)CCC(Oc2cccc(Cl)c2F)CC1` (centres undefined), the GI50 in the assay with HOP-62 NSCLC was 6.77 µM; with NCI-H460 lung, 0.344 µM; in the assay on UACC-257 melanoma, 31.6 µM; with PC-3 prostate it was 17.4 µM; with NCI-H23 lung it was 12.9 µM; in the assay on EKVX NSCLC, 13.6 µM. Also, the values for the GI50 in the assay on NCI/ADR-RES ovarian and in the assay with MOLT-4 leukemia were 3.48 µM and 15.7 µM, respectively. For the same compound, the TGI in the assay on HOP-62 NSCLC was 56.2 µM; with NCI-H460 lung, 19.6 µM; with UACC-257 melanoma, over 81.1 µM; in the assay on PC-3 prostate it was 84.3 µM; in the assay with NCI-H23 lung, 34.5 µM; in the assay with EKVX NSCLC it was 47.4 µM. In addition, the values for the TGI in the assay with NCI/ADR-RES ovarian and with MOLT-4 leukemia were over 65.4 µM and 63.8 µM, respectively.

Turning to `Cc1ccc(S(=O)(=O)Cc2nc(-c3ccc(C(=O)NCc4cccnc4)cc3)oc2C)cc1`, the GI50 is 15.4 µM in the assay with HOP-62 NSCLC; 0.843 µM in the assay on NCI-H460 lung; over 100 µM with UACC-257 melanoma; 0.224 µM in the assay with PC-3 prostate; over 100 µM in the assay with EKVX NSCLC; 0.623 µM in the assay with NCI/ADR-RES ovarian. Also, in the assay with MOLT-4 leukemia, the GI50 was 0.595 µM. The TGI was over 88.8 µM in the assay on HOP-62 NSCLC; over 100 µM in the assay with NCI-H460 lung; over 100 µM in the assay with UACC-257 melanoma; over 100 µM with PC-3 prostate; over 100 µM with EKVX NSCLC; over 100 µM with NCI/ADR-RES ovarian. In the assay with MOLT-4 leukemia, the TGI is over 100 µM.

Take `CCC1CCc2nc3sc(C(=O)Nc4ccccc4C)c(N)c3cc2C1` (centres undefined): the GI50 in the assay with HOP-62 NSCLC is 0.674 µM; in the assay with NCI-H460 lung it was 0.627 µM; in the assay on UACC-257 melanoma, 0.486 µM; with PC-3 prostate, 0.622 µM; with NCI/ADR-RES ovarian, 0.785 µM; in the assay with MOLT-4 leukemia, 0.661 µM. Also, the TGI in the assay with HOP-62 NSCLC, in the assay on NCI-H460 lung, in the assay on UACC-257 melanoma, in the assay with PC-3 prostate, with NCI/ADR-RES ovarian and with MOLT-4 leukemia was over 100 µM in each case.

In the case of `Cc1nc2n(c(=O)c1CCN1CCC(c3noc4cc(F)ccc34)CC1)CCCC2`, the GI50 in the assay on HOP-62 NSCLC, in the assay on NCI-H460 lung, in the assay with PC-3 prostate, in the assay on NCI-H23 lung, in the assay on EKVX NSCLC and in the assay with NCI/ADR-RES ovarian was over 50 µM each time. Further, the GI50 in the assay with MOLT-4 leukemia is over 50 µM. Besides, the TGI in the assay on HOP-62 NSCLC, in the assay on NCI-H460 lung, in the assay on PC-3 prostate, in the assay with NCI-H23 lung, in the assay on EKVX NSCLC and with NCI/ADR-RES ovarian was over 50 µM in each case. In addition, the TGI in the assay with MOLT-4 leukemia is over 50 µM.

Regarding `COc1ccc2c(c1)[n+](=O)c(C(=O)/C=C/c1cc(OC)c(OC)c(OC)c1)c(C)n2[O-]`, the GI50 in the assay with HOP-62 NSCLC was 18.7 µM; with NCI-H460 lung it was 23 µM; in the assay on UACC-257 melanoma, 34.1 µM; in the assay on PC-3 prostate it was 27.3 µM; with EKVX NSCLC, 1.97 µM; in the assay on NCI/ADR-RES ovarian, 32.3 µM. Further, the GI50 with MOLT-4 leukemia is over 100 µM. Besides, the TGI is 37.2 µM with HOP-62 NSCLC; over 100 µM in the assay with NCI-H460 lung; over 100 µM in the assay on UACC-257 melanoma; over 100 µM with PC-3 prostate; 15.1 µM with EKVX NSCLC; over 100 µM in the assay with NCI/ADR-RES ovarian. Moreover, in the assay with MOLT-4 leukemia, the TGI is over 100 µM.

As for `COc1ccc(-c2csc(-c3cc(Cl)cc(Cl)c3Cl)n2)cc1`, the GI50 is over 100 µM with HOP-62 NSCLC; 46.5 µM in the assay on NCI-H460 lung; 62.7 µM in the assay with UACC-257 melanoma; 52.2 µM in the assay with PC-3 prostate; 59.9 µM in the assay with EKVX NSCLC; 52.2 µM in the assay on NCI/ADR-RES ovarian. Further, the GI50 in the assay with MOLT-4 leukemia was 57 µM. For the same compound, the TGI with HOP-62 NSCLC, in the assay with NCI-H460 lung, in the assay on UACC-257 melanoma, in the assay with PC-3 prostate, in the assay on EKVX NSCLC and in the assay on NCI/ADR-RES ovarian was over 100 µM each time. In addition, the TGI in the assay on MOLT-4 leukemia was over 100 µM.

Take `COc1cccc2[nH]c(-c3ccccn3)nc12`: the TGI with HOP-62 NSCLC, in the assay with NCI-H460 lung, in the assay with UACC-257 melanoma, in the assay on PC-3 prostate, with NCI-H23 lung and in the assay on EKVX NSCLC was over 100 µM each time. This compound registered a TGI in the assay with NCI/ADR-RES ovarian of 73.8 µM.

For `CNC1C(O)C(OC2C(N)CC(N)C(OC3OC(C(C)O)C(O)C(O)C3N)C2O)OCC1(C)O` (centres undefined), the TGI in the assay on HOP-62 NSCLC, with NCI-H460 lung, in the assay on PC-3 prostate, in the assay with NCI-H23 lung, in the assay with EKVX NSCLC and in the assay on NCI/ADR-RES ovarian was over 100 µM in each case. For the same compound, the TGI in the assay with MOLT-4 leukemia is over 100 µM.

Consider `CCCCCCCC(=O)SCC/C=C/[C@@H]1CC(=O)NCc2nc(co2)C2=N[C@@](C)(CS2)C(=O)N[C@@H](C(C)C)C(=O)O1`, for which the GI50 is 0.0169 µM with HOP-62 NSCLC; 0.0137 µM in the assay with NCI-H460 lung; 0.0142 µM in the assay with PC-3 prostate; 0.0411 µM with NCI-H23 lung; 0.0344 µM with EKVX NSCLC; 0.606 µM in the assay on NCI/ADR-RES ovarian. The GI50 in the assay with MOLT-4 leukemia is 0.0241 µM. Besides, the TGI with NCI-H460 lung is 8.55 µM; in the assay with PC-3 prostate it was over 50 µM; with EKVX NSCLC, over 50 µM; in the assay with NCI/ADR-RES ovarian, over 31.6 µM; in the assay with MOLT-4 leukemia, 25.7 µM.

Turning to `O=C(Oc1ccccc1Cl)c1ccccc1Nc1ccnc(C(F)(F)F)c1`, the GI50 in the assay with HOP-62 NSCLC is 2.69 µM; with NCI-H460 lung it was 0.422 µM; with PC-3 prostate, 0.306 µM; in the assay on NCI-H23 lung, 0.0428 µM; with EKVX NSCLC it was 6.85 µM; with NCI/ADR-RES ovarian it was 0.269 µM. Further, the GI50 in the assay on MOLT-4 leukemia is 0.258 µM. Further, the TGI in the assay with HOP-62 NSCLC is 7.86 µM; with NCI-H460 lung, over 26.2 µM; in the assay with PC-3 prostate it was 3.55 µM; in the assay with NCI-H23 lung it was 0.248 µM; in the assay with EKVX NSCLC, 26 µM; with NCI/ADR-RES ovarian, 0.698 µM.
